Source: the supplement of paper PMC10307832

Tests used:
Assay in all cases: relative viability (nuclei count vs DMSO), 5 days (fraction); higher = more cells survive
[1] = compound: CCn1c(-c2nonc2N)nc2cnc(Oc3cccc(NC(=O)c4ccc(OCCN5CCOCC5)cc4)c3)cc21 + O=C(CCCCCCC(=O)Nc1ccccc1)NO [Vorinostat] (partner 1 µM)
Method in brief: (§1)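 Lung cancer cell lines were pin-tool dosed in 1536-well plates on the day after seeding, with either a lone drug or a fixed anchor-drug dose plus five library-drug doses (not always all listed) in √10 steps. Nuclei were counted on 4× images after 5 days. Relative viability is the ratio of treated-well to vehicle-well nuclei counts, with each value a median of duplicate plates.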

[2] = compound: CCC1=CN=CN=C1N2CCN(CC2)CC3=NC4=C(N3)C=C(C=C4)C(F)(F)F + CC1(C)CCC(c2ccc(Cl)cc2)=C(CN2CCN(c3ccc(C(=O)NS(=O)(=O)c4ccc(N[C@H](CCN5CCOCC5)CSc5ccccc5)c(S(=O)(=O)C(F)(F)F)c4)cc3)CC2)C1 [Navitoclax] (partner 0.5 µM)
Method in brief: as §1

[3] = compound: CCC1=CN=CN=C1N2CCN(CC2)CC3=NC4=C(N3)C=C(C=C4)C(F)(F)F + CS(=O)(=O)CCNCc1ccc(-c2ccc3ncnc(Nc4ccc(OCc5cccc(F)c5)c(Cl)c4)c3c2)o1 [Lapatinib] (partner 2 µM)
Method in brief: as §1

Mirin + Dasatinib = compound: N=C1NC(=O)/C(=C/c2ccc(O)cc2)S1 [Mirin] + Cc1nc(Nc2ncc(C(=O)Nc3c(C)cccc3Cl)s2)cc(N2CCN(CCO)CC2)n1 [Dasatinib] (partner 0.075 µM)
Method in brief: as §1

Cell Line	relative viability ([1]; first compound 0.04 µM)	relative viability ([1]; first compound 0.1265 µM)	relative viability ([1]; first compound 0.4 µM)	relative viability ([1]; first compound 1.265 µM)	relative viability ([1]; first compound 4 µM)	relative viability ([2]; first compound 0.04 µM)	relative viability ([2]; first compound 0.1265 µM)	relative viability ([2]; first compound 0.4 µM)	relative viability ([2]; first compound 1.265 µM)	relative viability ([2]; first compound 4 µM)	relative viability ([3]; first compound 0.04 µM)	relative viability ([3]; first compound 0.1265 µM)	relative viability ([3]; first compound 0.4 µM)	relative viability ([3]; first compound 1.265 µM)	relative viability ([3]; first compound 4 µM)	relative viability (Mirin + Dasatinib; first compound 0.25 µM)	relative viability (Mirin + Dasatinib; first compound 0.7906 µM)	relative viability (Mirin + Dasatinib; first compound 2.5 µM)	relative viability (Mirin + Dasatinib; first compound 7.906 µM)	relative viability (Mirin + Dasatinib; first compound 25 µM)
BEN	0.566	0.544	0.371	0.349	0.402	0.0475	0.075	0.0493	0.0611	0.0644	0.535	0.731	0.597	0.492	0.437	0.321	0.315	0.308	0.305	0.246
CAL-12T	1.44	0.862	0.731	0.553	0.288	1.26	1.28	1.21	1.23	1.17	–	0.667	0.677	0.707	0.574	0.489	–	0.503	0.347	0.28
COR-L23	0.508	0.309	0.225	0.13	0.113	1.02	0.853	1.02	0.959	0.968	0.979	0.914	0.74	0.781	0.92	0.55	0.563	0.534	0.553	0.524
COR-L 105	0.941	0.785	0.762	0.419	0.412	0.714	0.717	0.695	0.868	0.651	0.35	0.331	0.395	0.275	0.426	0.347	0.328	0.382	0.288	0.261
EKVX	0.786	0.365	0.757	0.513	0.647	0.96	0.96	0.886	0.724	0.977	0.212	0.198	0.227	0.174	0.216	0.671	–	0.565	0.494	0.564
EMC-BAC-2	0.438	0.297	0.159	0.147	0.167	1.15	1.14	1.14	1.14	1.2	0.889	0.864	0.86	0.743	0.982	0.328	0.324	0.349	0.271	0.249
EPLC-272H	0.467	0.545	0.425	0.357	0.348	0.973	1.05	1.11	1.07	1.31	0.854	0.807	0.853	0.913	0.975	0.416	–	0.413	0.301	0.232
H3255	0.92	0.743	0.686	0.618	0.568	0.489	0.469	0.507	0.49	0.529	0.241	0.238	0.218	0.234	0.246	0.383	0.315	0.347	0.275	0.381
HARA	0.524	0.551	0.538	0.577	0.645	1.18	1.13	1.15	1.11	1.19	0.894	0.762	0.687	0.602	0.866	0.194	–	0.222	0.247	0.195
HCC-15	0.938	0.785	0.81	0.767	0.718	0.702	0.67	0.757	0.694	0.71	0.847	0.814	0.839	0.828	0.865	0.608	0.655	0.599	0.632	0.404
HCC-78	0.43	0.42	–	0.505	0.638	0.654	0.832	0.831	0.476	0.525	0.458	0.363	0.726	0.548	0.463	0.361	0.283	0.577	0.374	0.31
HCC-366	0.396	0.3	0.137	0.0204	0.0377	1.07	1.04	1	–	1.05	1.01	1.05	0.988	–	1.13	0.677	–	0.624	0.588	0.486
HCC-827	0.92	0.881	0.806	0.525	0.701	1.08	1.03	1.03	0.903	0.937	0.201	0.182	0.184	0.165	0.178	0.407	0.336	0.301	0.451	0.334
HOP-62	0.936	0.769	0.521	0.382	0.394	1.06	1.07	1.04	0.898	0.927	1.14	1.06	0.979	0.971	1.07	0.699	0.756	0.743	0.671	0.56
LC-2-ad	0.728	0.618	0.258	0.29	0.277	0.459	0.603	0.522	0.324	0.351	1.07	0.898	0.899	0.945	0.925	0.588	0.504	0.668	0.386	0.368
LCLC-97TM1	1.12	0.856	–	0.705	0.662	0.411	0.384	0.396	0.489	0.396	1.02	0.697	0.828	0.877	0.8	0.773	0.816	0.868	0.737	0.765
LK-2	0.522	0.37	0.168	0.178	0.156	0.773	0.801	0.714	0.688	0.761	0.947	0.797	0.838	0.498	0.985	0.275	–	0.272	0.194	0.178
